No end group written: not given here.
Columns and labels:
Format in all cases: cell-based
[1] = system: primary cultured human pituitary cells; test: Pituitary hormone secretion from primary cultures of panned human pituitary cells; design: key to Effect on LH secretion / Effect on PRL secretion / Effect on FSH secretion / Effect on GH secretion: NE: no effect detected; +: stimulatory; −: inhibitory; conditions: for Optimum condition (concentration) for GH secretion / Optimum condition (concentration) for PRL secretion / Optimum condition (concentration) for FSH secretion / Optimum condition (concentration) for LH secretion: Gc medium
Experimental: Fetal human pituitary glands were obtained from Anatomical Gift Foundation (White Oak, Ga.) or Advanced Bioscience Resources, (Alameda, Calif.). Pituitary glands were stored in approximately 20 mls of RPMI culture media at 4° C. and processed within 24 hours of dissection. The gestational age ranged from 19 to 24 weeks. The following dispersion procedure was performed using sterile materials and technique throughout. Tissue was rinsed in 30 mls modified Kreb's Ringer solution, supplemented with 5 g/L bovine serum albumin (BSA) and nonessential amino acids. The tissue was then transferred to a glass microscope slide, and finely minced using scapels. Minced tissue was suspended in 2 to 2.25 mls modified Kreb's Ringer containing 1 mg/ml collagenase (Sigma Chemical Co., St. Louis, Mo.). The mixture was incubated at 37° C. with rotation at 250 rpm for 60 minutes. The dispersed cells were washed in 20 mls DMEM/F12 medium and centrifuged (5 minutes at 428×g). The supernatant was aspirated leaving 2-4 mls, and two additional washes were performed using 10 mls DMEM/F12. Cells were counted using a hemacytometer (Fresney, I R, 1987). The total number of cells ranged from 100,000 to 2 million per gland, with greater cell numbers in older pituitary glands. The mixture was centrifuged (5 minutes at 428×g). The pellet was then resuspended in culture media, as described below, at approximately 10^5 cells/ml and plated into multi-well, styrene tissue culture plates, incubated at 37° C. in humidified air supplemented with 5% CO2.
Primary culture conditions necessary for the proliferation of endocrine cells of the pituitary gland were investigated. The present invention requires cellular proliferation of target cells for integration of foreign DNA into the host cell genome and induction of immortalization. The pituitary gland is composed of numerous cell types including fibroblasts, follicular stellate cells, endocrine epithelial cells (gonadotropes, thyrotropes, somatotropes, lactotropes, melanotropes, corticotropes) and endothelial cells from blood vessels. Since the hormone-producing endocrine cells are one target of the present invention, we investigated methods to enrich the population of endocrine cells. […] Primary cultures were panned by initially plating the dispersed pituicytes in a single 35 mm tissue culture dish at about 5×10^4 cells/ml. After 16-24 hours, less adherent cells were removed from these cultures by repetitive pipetting of media (approximately 10 times). These cells were pelleted by centrifugation (5 minutes at 428×g) and replated at 10^5 cells/ml.
To monitor the viability and/or secretory capability of the hormone-producing endocrine cells, we measured secretion of pituitary hormones from cultures of panned pituitary cells. The level of FSH, LH, prolactin and TSH in culture media was determined using an automated chemiluminescent-based immunoanalyzer, ACS: 180™ (Chiron Diagnostics, Inc., Norwood, Mass.). Growth hormone was determined using an immunoradiometric assay (Nichols Institute, San Juan Capistrano, Calif.). Culture media was harvested on Mondays and Fridays from growing cultures for several weeks. These cultures were maintained in 48-well plates (Falcon/Becton Dickinson, Franklin Lakes, N.J.), with each well containing 1 ml of media. The majority of the media were carefully removed to avoid uptake of cells and transferred to 12×75 mm tubes for analysis. Cells were fed with an equal volume of fresh medium at the same time points. Background levels of GH in various media were insignificant (<0.1 ng/ml). Each condition was tested in duplicate and graphed values are the mean hormone concentration +/− standard deviation.
Similar types of experiments were done to optimize cell culture conditions and components for secretion of GH, FSH, LH, and prolactin from primary cultured human pituitary cells. […]

[2] = system: primary pituitary cultures; test: G418 selection: killing of non-transfected human pituitary cells
Experimental: Dispersed and panned cells human pituitary cells were plated at 200,000 to 300,000 cells per ml in 6-well plates (Falcon/Becton Dickinson, Franklin Lakes, N.J.) and grown until 30-50% confluent. Transfection was performed using cationic lipids to deliver plasmids containing either the SV40 large T antigen or the v-myc oncogene into primary-cultured pituitary cells. Plasmids without oncogenes were used as controls for transfection. Wells transfected with control plasmid slightly outlived primary cell cultures due to the presence of the gene coding for G418 resistance but died after 2 to 3 weeks or a single passage of the cells. Using Lipfectin®, we transfected panned pituitary cells with either pSV3neo (Southern, P J and Berg, P J, 1982) or pLXSN-v-myc, constructed as described below. The concentration of DNA was kept constant (typically […]) in each well while the amount of cationic lipid increased from 0-20 μl. […] The formation of colonies in the presence of G418 was monitored for a varying number of weeks.
Primary cultured human pituitary cells transfected with pSV3neo were incubated for an additional 48 to 60 hours in Gc medium with 10^−10 M estradiol and nonessential amino acids before G418 selection. […] Medium was replaced every 3 to 4 days and the formation of individual colonies was monitored visually. […]

[3] = system: immortalized bovine pituitary cells; test: Bovine GH secretion into conditioned media (immunoblot); conditions: 10 μM, 3 hours in media without FBS, passage 2-10
Experimental: Additional experiments were performed using highly sensitive immunological methods to detect bovine growth hormone within live, individual cells in the immortalized cultures. Bovine GH-specific monoclonal antibodies were obtained from Biogenesis, Inc. (Catalog No. 4750-0939) and OEM Concepts (Toms River, N.J.). […] A cellular blotting method was used to monitor bovine GH secretion from pituitary cells grown in culture, as described by Gibson-D'Ambrosio, et al. (1995). By localizing bovine GH within cultures, it was possible to obtain enriched cultures of bovine somatotropes prior to transfection with pSV3neo. […] These cell lines are indicated in Table 2 with the designation bGH, e.g., bGH C5.
To test for secretion of bovine GH from immortalized bovine cell line, cultures of passage 2-10 were grown to confluence in FBS-containing media, washed three times with PBS and incubated for 3 hours in media without FBS. Duplicate wells contained 10 μM bovine growth hormone releasing factor (GHRF).

[4] = primary human pituitary cultures
[5] = initial treatment, in the presence of cortisone and estrogen

With C[C@]12CC[C@@H]3c4ccc(O)cc4CC[C@H]3[C@@H]1CC[C@@H]2O [17β-Estradiol] the “Effect on GH secretion” value ([1]; 10^−10 M in medium, previous experiments) was “stimulatory effect”, the “Effect on FSH secretion” value [1, 4] was “NE” and the “Effect on LH secretion” value [1, 4] was “NE”. The “Optimum condition (concentration) for GH secretion” value [1, 4] was 100 pM and the “Optimum condition (concentration) for PRL secretion” value [1, 4] was 100 pM.
In the case of CN[C@@H]1[C@@H](O)[C@@H](O[C@@H]2[C@@H](O)[C@H](O[C@H]3O[C@H]([C@@H](C)O)[C@@H](O)[C@H](O)[C@H]3N)[C@@H](N)C[C@H]2N)OC[C@]1(C)O [G418], the Non-transfected cells killed ([2]; 250 μg/ml, final dose) is reported as 100% and the “Concentration sufficient to kill all primary pituitary cultures tested” value ([2]; human primary pituitary cultures) is reported as 150 µg/mL.
C[C@]12CCC(=O)C=C1CC[C@@H]1[C@@H]2[C@@H](O)C[C@@]2(C)[C@H]1CC[C@]2(O)C(=O)CO [Hydrocortisone] was tested, and the “Effect on LH secretion” value [1, 4] was “NE”, the “Effect on PRL secretion” value [1, 4] was “NE” and the “Optimum condition (concentration) for FSH secretion” value [1, 4] was 5e-08 M. The “Optimum condition (concentration) for GH secretion” value [1, 4] was 50000 pM.
In the case of N[C@@H](Cc1cc(I)c(Oc2ccc(O)c(I)c2)c(I)c1)C(=O)O [T3, 3,5,3′ triiodothyronine], the “Effect on TSH release” value ([1]; 10^−10 M) is reported as “strongly inhibitory”, the “Effect on secretion of GH” value ([1]; 10^−10 M) is reported as “beneficial” and the “Effect on secretion of LH” value ([1]; 10^−10 M) is reported as “beneficial”. For the same compound, the “Effect on secretion of prolactin” value ([1]; 10^−10 M) was “beneficial”, the “Effect on FSH secretion” value [1, 4] was “NE” and the “Optimum condition (concentration) for GH secretion” value [1, 4] was 100 pM. The “Optimum condition (concentration) for LH secretion” value [1, 4] was 1e-10 M and the “Optimum condition (concentration) for PRL secretion” value [1, 4] was 100 pM.
In the case of “FGF-basic: basic fibroblast growth factor, growth factor addition to the medium”, the “Effect on GH release” value ([1]; 0.1 ng/ml, preliminary evidence) is reported as “potentiates”, the “Effect on FSH secretion” value [1, 4] is reported as “NE” and the “Effect on LH secretion” value [1, 4] is reported as “NE”. The “Effect on PRL secretion” value [1, 4] was “NE” and the “Optimum condition (concentration) for GH secretion” value [1, 4] was 0.1 ng/mL.
With “GHRF: bovine growth hormone releasing factor (YADAIFTNSYRKVLGQLSARKLLQDIMNRQQGERNQEQGAKVRL; ends and bridges not checked; UniProt P63292 31-74, looked up)” the “Effect on amount of bovine GH secreted” value [3] was “appeared to be potentiated”.
With “GnRH: gonadotropin releasing hormone, a hypothalamic releasing hormone (QHWSYGLRPG; ends and bridges not checked; UniProt P01148 24-33, looked up)” the “Effect on FSH secretion” value [1, 5] was “significantly potentiated”, the “Effect on LH secretion” value [1, 5] was “significantly potentiated” and the “Effect on GH secretion” value [1, 4] was “NE”. The “Effect on PRL secretion” value [1, 4] was “NE”, the “Optimum condition (concentration) for FSH secretion” value [1, 4] was 10^−10 M and the “Optimum condition (concentration) for LH secretion” value [1, 4] was 10^−7 to 10^−10M.

From patent publication US6458593B1, “Immortalized cell lines and methods of making the same” (Vitro Diagnostics, Inc., priority 1999, dated 2002)
